The results in this text go back to patent EP0637237B1, “CALCIUM RECEPTOR-ACTIVE MOLECULES” (BRIGHAM AND WOMEN'S HOSPITAL, INC., priority 1993, dated 1994).

In one assay the target is T1, C-cell Ca^2+ receptor (Rattus norvegicus, UniProt P48442).
T1 sequence (P48442 20-1079): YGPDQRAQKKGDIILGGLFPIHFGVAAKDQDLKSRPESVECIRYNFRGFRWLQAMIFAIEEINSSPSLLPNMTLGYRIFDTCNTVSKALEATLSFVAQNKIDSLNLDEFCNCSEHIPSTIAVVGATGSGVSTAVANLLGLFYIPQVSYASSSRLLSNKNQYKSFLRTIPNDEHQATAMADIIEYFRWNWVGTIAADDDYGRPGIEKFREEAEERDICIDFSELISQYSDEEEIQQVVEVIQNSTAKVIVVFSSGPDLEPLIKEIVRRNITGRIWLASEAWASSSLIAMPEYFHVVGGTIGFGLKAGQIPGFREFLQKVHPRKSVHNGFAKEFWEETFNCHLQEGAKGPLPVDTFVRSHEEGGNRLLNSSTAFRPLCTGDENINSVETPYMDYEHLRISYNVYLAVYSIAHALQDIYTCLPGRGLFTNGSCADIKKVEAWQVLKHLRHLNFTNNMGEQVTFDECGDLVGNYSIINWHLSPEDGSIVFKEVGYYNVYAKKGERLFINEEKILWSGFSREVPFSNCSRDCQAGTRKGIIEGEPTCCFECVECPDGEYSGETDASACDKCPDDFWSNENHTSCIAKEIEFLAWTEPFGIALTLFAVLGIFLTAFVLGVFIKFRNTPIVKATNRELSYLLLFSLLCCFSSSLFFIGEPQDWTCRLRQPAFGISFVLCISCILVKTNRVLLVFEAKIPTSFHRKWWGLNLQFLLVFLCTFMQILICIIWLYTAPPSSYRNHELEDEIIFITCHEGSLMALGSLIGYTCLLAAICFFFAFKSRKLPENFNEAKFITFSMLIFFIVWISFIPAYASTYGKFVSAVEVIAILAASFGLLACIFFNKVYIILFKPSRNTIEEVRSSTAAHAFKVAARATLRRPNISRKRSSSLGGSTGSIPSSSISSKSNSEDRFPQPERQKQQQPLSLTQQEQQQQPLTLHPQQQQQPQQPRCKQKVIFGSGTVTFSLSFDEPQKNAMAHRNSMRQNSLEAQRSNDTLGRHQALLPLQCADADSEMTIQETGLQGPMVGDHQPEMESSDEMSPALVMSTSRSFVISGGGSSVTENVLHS
Type of assay: cell-based. To be noted: spermine 10 mM, neomycin B 5 mM.

Assay [1] addresses T2, bovine parathyroid Ca^2+-receptor (Bos taurus, UniProt P35384).
T2 construct: expressed in transfected cells; host or cells: Xenopus laevis oocytes injected with cRNA from the BoPCaR 1 cDNA (plasmid pSPORT1, ATCC 75416)
T2 sequence (P35384 20-1085): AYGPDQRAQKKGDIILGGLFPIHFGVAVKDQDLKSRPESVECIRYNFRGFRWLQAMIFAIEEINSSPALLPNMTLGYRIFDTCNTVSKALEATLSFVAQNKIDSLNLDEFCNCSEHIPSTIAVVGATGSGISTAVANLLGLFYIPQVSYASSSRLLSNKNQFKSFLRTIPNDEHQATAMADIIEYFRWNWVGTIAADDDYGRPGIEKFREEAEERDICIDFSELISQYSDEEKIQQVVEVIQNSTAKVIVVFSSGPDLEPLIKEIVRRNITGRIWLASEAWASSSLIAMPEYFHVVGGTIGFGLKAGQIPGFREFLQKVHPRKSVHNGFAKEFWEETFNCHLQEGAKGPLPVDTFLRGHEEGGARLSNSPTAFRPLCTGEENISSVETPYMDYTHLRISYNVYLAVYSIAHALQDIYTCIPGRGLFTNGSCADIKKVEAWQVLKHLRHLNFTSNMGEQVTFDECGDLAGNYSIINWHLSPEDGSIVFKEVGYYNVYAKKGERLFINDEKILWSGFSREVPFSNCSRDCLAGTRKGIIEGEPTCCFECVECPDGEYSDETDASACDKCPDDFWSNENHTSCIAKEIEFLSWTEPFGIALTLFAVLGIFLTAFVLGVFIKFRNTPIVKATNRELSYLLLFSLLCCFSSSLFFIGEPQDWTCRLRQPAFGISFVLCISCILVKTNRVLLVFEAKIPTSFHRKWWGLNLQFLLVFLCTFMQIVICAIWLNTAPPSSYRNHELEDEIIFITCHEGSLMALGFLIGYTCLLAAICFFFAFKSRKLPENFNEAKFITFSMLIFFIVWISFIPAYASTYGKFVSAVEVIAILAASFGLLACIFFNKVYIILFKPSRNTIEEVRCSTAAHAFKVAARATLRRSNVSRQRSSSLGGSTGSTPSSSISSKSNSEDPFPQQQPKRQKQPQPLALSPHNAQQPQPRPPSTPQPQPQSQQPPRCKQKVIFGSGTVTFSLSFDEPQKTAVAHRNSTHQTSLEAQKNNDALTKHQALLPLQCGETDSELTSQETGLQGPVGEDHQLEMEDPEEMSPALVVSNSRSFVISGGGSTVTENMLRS
Put plainly: Cl- current in Xenopus oocytes expressing the cloned receptor (BoPCaR 1). It is filed as cell-based. To be noted: neomycin 20-100 µM.

Each structure is given as a SMILES string.

For `NC[C@@H]1O[C@H](O[C@H]2[C@@H](O)[C@H](O[C@@H]3[C@@H](O)[C@H](N)C[C@H](N)[C@H]3O[C@H]3O[C@H](CN)[C@@H](O)[C@H](O)[C@H]3N)O[C@@H]2CO)[C@H](N)[C@@H](O)[C@@H]1O` [neomycin B], at C-cell Ca^2+ receptor, the “effect on basal [Ca2+]i” value was “without effect on basal [Ca^2+]i”. For the same molecule, the “changes in Cl- current” value in assay [1] was “produced changes in Cl^- current in oocytes essentially identical to those produced by Ca^2+ or Gd^3+”.
